Experimental data as given in patent publication US20030026781A1, “Compositions and methods for regulating endogenous inhibitor of ATP synthase, including treatment for diabetes” (MitoKor, priority 1999, published 2003).
“And” between values parts separate entries of the source, which are not always exact repeats. Equal entries are not always repeated. Ends that are not written are not given here.

Key:
purified F1-ATPase = target: T1, purified F1-ATPase (Bos taurus, UniProt P00829+P19483); test: ATP hydrolysis by purified F1-ATPase; type: biochemical; conditions: bovine cardiac F1-ATPase; read-out: IC50 for inhibition of ATP hydrolysis by purified F1-ATPase
T1 construct: F1 ATPase subcomplexes were isolated from bovine cardiac samples; from tissue; host or cells: bovine heart (alkaline submitochondrial particles, chloroform extraction, method of Walker et al. 1995)
Procedure: (§1) F0-F1 ATPase complexes and F1 ATPase subcomplexes were isolated from bovine cardiac samples essentially according to the method of Walker et al. (Methods in Enzymology 260:163-190, 1995), with the exception that, instead of preparing SMPs (submitochondrial particles) at neutral pH, ASMPs (alkaline submitochondrial particles; see Rouslin and Broge, Anal. Biochem. 222:68-75, 1994) were prepared from bovine heart by sonication in a basic solution. The ASMPs were extracted with chloroform and used to prepare F0-F1 ATPase and F1 ATPase according to the method of Walker et al. (Methods in Enzymology 260:163-190, 1995).
(§2) One assay for ATPase activity involves measuring ATP hydrolysis according to methods known in the art (Walker et al., Methods in Enzymology 260:163-190, 1995; Rouslin and Broge, Anal. Biochem. 222:68-75, 1994). Such assays can be performed using purified F0-F1 ATPase complexes or F1 ATPase subcomplexes, or using alkaline submitochondrial particles (ASMPs).
In an initial experiment to validate the reagents and assay system, Aurovertin-B was used as a positive control. This antibiotic binds to and inhibits the activity of bacterial and mitochondrial ATPases (van Raaij et al., Proc. Natl. Acad. Sci. US.A. 93:14 6913-14 6917, 1996). The purified F1-ATPase described in the preceding Example was treated with varying concentrations of Aurovertin-B, and ATP hydrolyis was measured.

INS-1 cells [1] = test: Mitochondrial DNA content of INS-1 cells by slot blot with COX-I probe; conditions: for effect on mtDNA content: INS-1 cells incubated for seven days with nucleoside analog
INS-1 cells [2] = test: Glucose-responsive insulin secretion by INS-1 cells depleted of mtDNA; type: cell-based, rat; conditions: cells treated with ddC (10 μM) for over 20 days; any glucose level tested
Procedure: INS-1 cells, or ρ^0 INS-1 cells generated using ddC as described above, were seeded into 12-well plates containing RPMI media supplemented as described at 0.5×10^6 cells/well and cultured at 37° C., 5% CO2 for 2 days. Cells (0.7×10^6 cells/well were rinsed with glucose-free KRH buffer (134 mM NaCl, 4.7 mM KCl, 1.2 mM KH2PO4, 1.2 mM MgSO4, 1.0 mM CaCl2, 10 mM HEPES, 10 mM NaHCO3, 0.5% BSA), then incubated in the same buffer for 1 hr at 37° C. in a humidified 5% CO2/95% air atmosphere. Fresh KRH buffer containing 0.5 mM isobutylmethyl xanthine and the following secretagogues was added: 5 mM glucose, 10 mM glucose, 20 mM glucose, 5 mM KCl or 20 mM KCl. After an additional 1 hr at 37° C., 5% CO2 the culture supernatants were collected. Insulin concentrations in the supernatants were measured and normalized to cell number using an insulin-specific radioimmunoassay kit (ICN Biochemicals, Irvine, Calif.) according to the manufacturer's instructions.

F0-F1-ATPase = target: T2, F0-F1-ATPase (Bos taurus, UniProt P00829+P19483); test: ATP hydrolysis by purified F0-F1-ATPase; type: biochemical; conditions: bovine cardiac F0-F1-ATPase
T2 construct: F0-F1 ATPase complexes and F1 ATPase subcomplexes were isolated from bovine cardiac samples; from tissue; host or cells: bovine heart (from alkaline submitochondrial particles, method of Walker et al. 1995)
Procedure: as §1, §2
In like fashion, the two IF1 polypeptide derivatives were tested for their ability to inhibit the purified F1-ATPase and F0-F1-ATPase. The results (FIG. 5) indicate that both synthetic polypeptides inhibited the F1 ATPase. […]

Compound: CC[C@H]1O[C@]2(C)[C@H](OC(C)=O)[C@@]1(C)O[C@@H](/C=C/C=C/C=C/c1oc(=O)cc(OC)c1C)[C@@H]2O [Aurovertin-B]
- IC50 (purified F1-ATPase): 850 nM

Compound: Cc1cn([C@H]2C=C[C@@H](CO)O2)c(=O)[nH]c1=O [d4T]
- effect on mtDNA content (INS-1 cells [1]): decreased mtDNA content in a dose-dependent fashion

Compound: Nc1ccn([C@H]2CC[C@@H](CO)O2)c(=O)n1 [ddC, 2′3′-dideoxycytidine]
- effect on mtDNA content (INS-1 cells [1]): decreased mtDNA content in a dose-dependent fashion
- mtDNA detection (INS-1 cells [1]; INS-1 cells incubated with 25 ∥M ddC, after 21 days): undetectable
- IC50 (INS-1 cells [1]; read-out: IC50 for decrease of mtDNA content, INS-1 cells, seven days): ~50000 nM
- glucose stimulated insulin secretion (INS-1 cells [2]): not observed

Compound: O=c1[nH]cnc2c1ncn2[C@H]1CC[C@@H](CO)O1 [ddI, 2′3′-dideoxyinosine]
- effect on mtDNA content (INS-1 cells [1]): decreased mtDNA content in a dose-dependent fashion

Compound: FGKREKAEEDRYFREKTREQLAALK [IF1(22-46)]
- IC50 for inhibition of purified F0-F1-ATPase (F0-F1-ATPase): no effect

Compound: LAALKKHHEDEIDHHSK [IF1(42-58)]
- IC50 (F0-F1-ATPase; read-out: IC50 for inhibition of purified F0-F1-ATPase): ~180 nM and 180 nM
